# Experimental data: patent US11840551B2, “Compositions and methods of modulating the immune response by activating alpha protein kinase 1” (Shanghai Yao Yuan Biotechnology Co., Ltd., priority 2017, dated 2023)
# Tests used:
# [1] = test system: eosinophils, dendritic cells, neutrophils; assay: Porcine pancreas elastase (PPE) model, immune cells in bronchoalveolar lavage (flow cytometry); type: in vivo, C57BL/6 mice; conditions: 4 nmol/dose and 20 nmol/dose intraperitoneal on days -1, 0, 1; BAL on day 2
# Method: Eight-week-old male C57BL/6 mice were grouped (N=8/group) and were intraperitoneally (I.P.) injected with compound 28 at 0, 4, or 20 nmol/dose on days −1, 0, and 1. In addition, mice were intratracheally (I.Tr.) administrated with 0 or 30 μg/dose of porcine pancreas elastase (PPE) dissolved in 50 μL saline on day 0. Mice were sacrificed on day 2 and the immune cells were collected by bronchoalveolar lavage (BAL). Cells were then subjected to fluorophore-conjugated antibody staining and analyzed by flow cytometry. Data were processed with a FlowJo […] (Treestar) Immune cells were gated as singlets >live cells>CD11c^highSiglecF^lowMHCII^high (dendritic cells), CD11c^lowCD11b^highLy-6G^high (neutrophils), and CD11c^lowCD11b^highLy-6G^lowSiglecF^high (eosinophils).
# HBsAg, adw = assay: Immunization with HBsAg, adw, specific total IgG serum titers (ELISA); type: in vivo, C57BL/6J mice; conditions: intradermal, adw combined with 1 nmol/dose compound 28, days 0 and 14, sera at day 35
# Method: Eight-week-old C57BL/6J mice (females) were intradermally (I.D.) immunized at day 0 with HBsAg, adw (1 mg/dose), or HBsAg, adw at 1 mg/dose combined with compound 28 (1 nmol/dose). Mice were boosted with a second immunization at day 14 and the sera collected at day 35. HBsAg, adw-specific total IgG serum titers (OD450) were determined by ELISA. Anti-HBsAg, adw IgG titers were more than 2× higher when HBsAg, adw was combined with 1 nmol/dose of compound 28 than when HBsAg, adw was injected alone (FIG. 35).
# ALPK1 = target: T1, ALPK1 (Mus musculus, UniProt Q9CXB8); assay: Serum RANTES levels as marker of ALPK1 activation in vivo; design: species or system C57/B6 mice; conditions: 10 nmole subcutaneous, serum at 24 hours or 48 hours, compared to Compound 15
# T1 construct: C57/B6 mice (n=3 mice/group) were injected subcutaneously; from tissue; host or cells: whole animal, C57/B6 mice
# T1 sequence (Q9CXB8 1-1231): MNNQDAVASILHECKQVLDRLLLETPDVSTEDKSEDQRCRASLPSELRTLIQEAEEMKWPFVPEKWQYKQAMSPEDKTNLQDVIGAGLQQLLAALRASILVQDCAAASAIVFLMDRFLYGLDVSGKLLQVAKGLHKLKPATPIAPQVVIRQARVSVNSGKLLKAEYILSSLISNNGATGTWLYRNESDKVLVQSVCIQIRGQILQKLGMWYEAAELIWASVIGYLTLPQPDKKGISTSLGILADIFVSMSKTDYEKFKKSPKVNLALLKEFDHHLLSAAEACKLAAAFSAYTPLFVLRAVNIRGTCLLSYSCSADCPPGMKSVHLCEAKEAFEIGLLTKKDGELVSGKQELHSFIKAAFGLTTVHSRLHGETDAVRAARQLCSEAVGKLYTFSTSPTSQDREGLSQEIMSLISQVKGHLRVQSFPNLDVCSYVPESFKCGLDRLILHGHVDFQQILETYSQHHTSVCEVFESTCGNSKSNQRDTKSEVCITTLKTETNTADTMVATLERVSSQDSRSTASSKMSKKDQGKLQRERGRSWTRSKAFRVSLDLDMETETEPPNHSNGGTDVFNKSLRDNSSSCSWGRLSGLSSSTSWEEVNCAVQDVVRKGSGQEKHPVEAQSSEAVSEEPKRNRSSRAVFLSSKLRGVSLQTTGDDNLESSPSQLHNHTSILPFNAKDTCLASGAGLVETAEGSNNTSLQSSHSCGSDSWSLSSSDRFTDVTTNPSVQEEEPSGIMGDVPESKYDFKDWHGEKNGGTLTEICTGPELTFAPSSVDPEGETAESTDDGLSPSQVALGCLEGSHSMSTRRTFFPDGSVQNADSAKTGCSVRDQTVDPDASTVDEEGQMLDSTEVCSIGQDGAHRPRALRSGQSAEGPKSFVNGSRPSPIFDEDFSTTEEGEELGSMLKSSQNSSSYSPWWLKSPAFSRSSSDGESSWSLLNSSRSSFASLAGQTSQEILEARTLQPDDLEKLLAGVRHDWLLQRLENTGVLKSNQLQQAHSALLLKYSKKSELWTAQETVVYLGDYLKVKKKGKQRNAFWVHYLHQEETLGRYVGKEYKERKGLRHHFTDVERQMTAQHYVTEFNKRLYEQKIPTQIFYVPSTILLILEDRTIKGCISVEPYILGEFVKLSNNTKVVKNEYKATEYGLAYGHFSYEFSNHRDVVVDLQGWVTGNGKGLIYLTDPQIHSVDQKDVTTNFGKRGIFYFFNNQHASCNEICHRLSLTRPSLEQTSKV
# Method: The ability of Compounds 15 and 28 to stimulate ALPK1 activation in vivo was tested by monitoring serum levels of the chemokine RANTES (CCLS), which is elevated upon activation of ALPK1. Briefly, C57/B6 mice (n=3 mice/group) were injected subcutaneously with PBS (negative control) or 10 nmole of Compound 15 or Compound 28. Serum was collected at 24 hours or 48 hours post injection.
# HBV = assay: HBV-AAV mouse model; type: in vivo, C57BL/6 mice
# Method: Administration of Compound 28 (0.1 mg/kg, twice weekly “BIW”) led to downregulation of HBV DNA expression and a decrease in serum levels of HBsAg, and HBeAg in the HBV-AAV mouse model. At day 1, male C57BL/6 mice were intravenously injected with AAV8-1.3HBV (1×10^11 v/g). After days 28 and 31, each mouse was then intraperitoneally injected with 0.1 mg/kg compound 28 or PBS control. At day 35, mouse serum was collected for HBV DNA qPCR analysis, HBsAg and HBeAg serum analysis by ELISA.
# [2] = 0.1 mg/kg intraperitoneal at days 28 and 31, serum at day 35, ELISA
smiles,measurement,setting,value
"CC(=O)OC[C@H](F)[C@H]1O[C@@H](OP(=O)(O)OP(O)(=S)OC[C@H]2O[C@@H](n3cnc4c(N)ncnc43)[C@H](O)[C@@H]2O)[C@@H](OC(C)=O)[C@@H](OC(C)=O)[C@@H]1OC(C)=O (stereo partly drawn) [Compound 28, (2S,3S,4S,5S,6S)-2-((S)-2-acetoxy-1-fluoroethyl)-6-(((((((2R,3S,4R,5R)-5-(6-amino-9H-purin-9-yl)-3,4-dihydroxytetrahydrofuran-2-yl)methoxy)(hydroxy)phosphorothioyl)oxy)(hydroxy)phosphoryl)oxy)tetrahydro-2H-pyran-3,4,5-triyl triacetate]",increase in the production of dendritic cells after PPE administration,[1],significantly suppressed
same,increase in the production of eosinophils after PPE administration,[1],significantly suppressed
same,increased production of neutrophils after PPE administration,[1],also suppressed but only at the 20 nmol/dose level
same,"Anti-HBsAg, adw IgG titers relative to HBsAg, adw injected alone","HBsAg, adw",more than 2 ×
same,duration of immune activation (serum RANTES),ALPK1,showed a longer duration of immune activation
same,serum levels of HBeAg,HBV; [2],marked decrease
same,serum levels of HBsAg,HBV; [2],marked decrease
same,HBV DNA expression,"HBV; 0.1 mg/kg intraperitoneal at days 28 and 31, serum at day 35, qPCR",marked decrease
